Data published in ChEMBL document CHEMBL1151256, “New alkaloids and a tetraflavonoid from Cephalotaxus wilsoniana” (J Nat Prod, 2004).
Values after ≈ are worked out from the molar mass of the structure shown.

Columns and labels:
[1] = system: HepG2; assay: Cytotoxicity against human HepG2 cells after 6 days by MTT assay; format: functional, cell-based; details: HepG2, 144 h
[2] = system: MCF7; assay: Cytotoxicity against human MCF7 cells after 6 days by MTT assay; format: functional, cell-based; details: MCF7, 144 h
[3] = Cytotoxicity against human Hep3B cells after 6 days by MTT assay; format: functional, cell-based, Hep 3B2; details: 144 h
[4] = system: HT-29; assay: Cytotoxicity against human HT-29 cells after 6 days by MTT assay; format: functional, cell-based; details: HT-29, 144 h

`COc1cc2c(cc1OC)C13C[C@@H](OC)C=C[C@@]14O[C@H]4C(=O)N3CCC2` (some centres undefined) gave an IC50 [1] of 52 µg/mL (≈ 145 µM), an IC50 [2] of 42 µg/mL (≈ 118 µM) and an IC50 [3] of 52 µg/mL (≈ 145 µM). For the same molecule, the IC50 [4] was 24.4 µg/mL (≈ 68.3 µM).
